One data set deals with motor impairment. Briefly: Inverted screen test for motor impairment (within rat PTZ model). The format is in vivo. Conditions: rats, 1-10 mg/Kg p.o., 25 min after dosing. How it is done:
Animals are removed and dosed with test compound or vehicle (5% DMSO, 10% acacia and 0.05% Dow Corning® 1510-US antifoam), p.o., 10 mL/Kg, and returned to their home cage. Twenty five min. after dosing, animals are placed onto a screen and the screen is inverted 180 degrees to test for motor impairment. The animals are scored 60 sec. after inversion as follows: 0 if the animal climbs over the screen; 1 if the animal is hanging onto the bottom of the screen; 2 if the animal has fallen off the screen. After completing the screen test, animals are dosed S.C. with 35 mg/kg PTZ in saline in a volume of 1 ml/kg. The animals are then placed in an observation cage and observed for 30 min. post PTZ. […] Tonic seizure is defined as loss of righting with tonic hindlimb extension. Lethality during the observation period is also recorded. Animals are scored according to the presence of a specific seizure type at any time during the observation period.

Data set [1] has as its target T1, AMPA GluA1 flip isoform devoid of TARP (Homo sapiens, UniProt P42261).
T1 construct: expressed in transfected cells; host or cells: CHO-S (Invitrogen), transient transfection
As to the kind of experiment: FLIPR antagonist functional assay, GluA1 flip expressed in CHO-S cells without TARP. As to conditions: no TARP, did not inhibit, assay limit 9260 nM. The format is cell-based. How it is done: (§1) FLIPR Antagonist Functional Assay
(§2) Briefly, CHO-S (Invitrogen) cells are grown in suspension in 50/50 custom media to a density of 1×10^7 cells/ml. […]

The target of data set [2] is T2, TARP γ8 dependent GluA1 flop receptors (Homo sapiens, UniProt P42261+Q8WXS5).
T2 construct: expressed in transfected cells; host or cells: CHO-S (Invitrogen), transient transfection
Briefly: FLIPR antagonist functional assay, GluA1 flop co-expressed with TARP γ-8 in CHO-S cells. The data set is classed as cell-based. Conditions: glutamate 45 μM plus CTZ 20 μM, average±SEM, n=9. How it is done:
as §1, §2

A further data set deals with PTZ induced seizures. As to the kind of experiment: Rat pentylenetetrazole (PTZ)-induced seizure model. The format is in vivo. The source says:
Rat Pentylenetetrazole (PTZ)-Induced Seizure Model:
Male Sprague Dawley rats (from Harlan Sprague Dawley. Indianapolis, Ind.), weighing 90-110 grams at time of test, are housed 5 per cage with ad libitum food and water in a large colony room with a standard light cycle (lights on 6 am, lights off 6 pm). Animals are maintained in the colony room for at least 3 days before testing Animals are moved to a quiet room 1 hr. prior to the start of the test. Animals are used only once.
Animals are removed and dosed with test compound or vehicle (5% DMSO, 10% acacia and 0.05% Dow Corning® 1510-US antifoam), p.o., 10 mL/Kg, and returned to their home cage. Twenty five min. after dosing, animals are placed onto a screen and the screen is inverted 180 degrees to test for motor impairment. The animals are scored 60 sec. after inversion as follows: 0 if the animal climbs over the screen; 1 if the animal is hanging onto the bottom of the screen; 2 if the animal has fallen off the screen. After completing the screen test, animals are dosed S.C. with 35 mg/kg PTZ in saline in a volume of 1 ml/kg. The animals are then placed in an observation cage and observed for 30 min. post PTZ. […] Lethality during the observation period is also recorded. Animals are scored according to the presence of a specific seizure type at any time during the observation period.

The target of data set [3] is T3, TARP γ2 dependent GluA1 flop receptors (Homo sapiens, UniProt P42261+Q9Y698).
T3 construct: expressed in transfected cells; host or cells: CHO-S (Invitrogen), transient transfection
Briefly: FLIPR antagonist functional assay, GluA1 flop co-expressed with TARP γ-2 in CHO-S cells. The data set is classed as cell-based. Conditions: did not inhibit, assay limit 9260 nM. How it is done:
as §1, §2

A further data set deals with formalin induced pain. As to the kind of experiment: Manual formalin induced pain model. The data set is classed as in vivo, mice. As to conditions: for % reduction in total time licking: mice. How it is done:
Manual Formalin Induced Pain Model
The manual formalin induced pain model is well known for screening compounds for analgesic properties (Mogil J. S. et al., Heritability of nociception I: Responses of 11 inbred mouse strains on 12 measures of nociception. Pain 80 (1999) 67-82). The assay is performed in Plexiglas® boxes approx. 10 cm×10 cm×10 cm in size. A minor placed at the back of the cage allows the unhindered observation of the formalin injected paw. Non-fasted male mice (Harlan (HSD) CD1-Icr) are placed individually in the cubicles at least 60 min. prior to the experiment. All testing is conducted between 08:00 and 16:00 hr. and the testing room temperature is maintained at 21-23° C. Multiple doses of test compound (3, 10 and 30 mg/kg), vehicle (5% DMSO in 10% Acacia, 0.05% antifoam), and a positive control (tramadol 80 mg/kg in 1% HEC, 0.25% Tween 80, 0.05% antifoam) are peripherally administered (p.o.) at varying times before the formalin challenge. Formalin (20 μL of a 5% solution in 0.9% saline) is injected subcutaneously into the plantar surface of the left hind paw with a 27 gauge needle. Observation starts immediately after the formalin injection. Formalin induced pain is quantified by recording the number of seconds each licking event lasts in 5 min. intervals. The pain scoring is measured for 60 min. after the formalin injection. Two phases of pain behavior are observed as previously described (Wheeler-Aceto, H., Porreca, F. and Cowan, A., The rat paw formalin test: comparison of noxious agents, Pain 40 (1990) 229-238.). The early phase starts immediately after the formalin injection and lasts approximately 5 min., followed by the late phase that starts between minutes 10-15 with a maximum response typically observed around 25-40 min after the formalin injection. After the 60 min observation period, animals are sacrificed with CO2 followed by cervical dislocation. Of the different scoring parameters reported for the formalin test, the total time spent licking and biting the injected paw is considered to be most relevant. (Abbott et al., The formalin test: scoring properties of the first and second phases of the pain response in rats, Pain 60 (1995) 91-102; Coderre et al., The formalin test: a validation of the weighted-scores method of the behavioral pain rating, Pain 54 (1993) 43-50).) The early phase score is the sum of time spent licking (seconds) from time 0 to 5 min. The late phase score is obtained by adding the total number of seconds spent licking from minute 15 to min. 55 of the observation period. Data are presented as means with standard errors of means (±SEM). Data are evaluated by one-way analysis of variance (ANOVA) and the appropriate contrasts analyzed by Dunnett “t” test for two sided comparisons. […]

T2 sequence (P42261 19-906): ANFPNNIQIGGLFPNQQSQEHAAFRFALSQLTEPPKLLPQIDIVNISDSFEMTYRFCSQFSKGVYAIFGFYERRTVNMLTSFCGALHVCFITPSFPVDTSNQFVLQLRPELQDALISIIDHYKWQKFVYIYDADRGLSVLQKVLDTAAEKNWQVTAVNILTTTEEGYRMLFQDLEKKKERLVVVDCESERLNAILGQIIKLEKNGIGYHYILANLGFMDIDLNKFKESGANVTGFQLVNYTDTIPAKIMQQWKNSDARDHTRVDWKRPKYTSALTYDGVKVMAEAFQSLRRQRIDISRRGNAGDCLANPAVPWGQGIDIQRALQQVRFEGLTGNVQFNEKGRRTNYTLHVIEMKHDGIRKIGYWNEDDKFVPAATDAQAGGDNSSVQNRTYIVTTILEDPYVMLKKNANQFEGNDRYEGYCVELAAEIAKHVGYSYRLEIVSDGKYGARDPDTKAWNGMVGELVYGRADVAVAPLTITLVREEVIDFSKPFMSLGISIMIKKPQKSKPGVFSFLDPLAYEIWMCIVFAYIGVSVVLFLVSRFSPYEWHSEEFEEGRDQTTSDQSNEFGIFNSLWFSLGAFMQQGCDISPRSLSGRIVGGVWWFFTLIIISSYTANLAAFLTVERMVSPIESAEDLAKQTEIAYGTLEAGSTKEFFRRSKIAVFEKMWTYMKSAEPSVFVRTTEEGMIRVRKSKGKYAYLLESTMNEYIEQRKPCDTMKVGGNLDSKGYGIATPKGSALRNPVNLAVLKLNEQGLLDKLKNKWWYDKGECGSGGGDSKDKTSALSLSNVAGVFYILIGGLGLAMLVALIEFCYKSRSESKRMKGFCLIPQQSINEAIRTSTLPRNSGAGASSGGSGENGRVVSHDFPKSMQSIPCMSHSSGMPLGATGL
T2 sequence (Q8WXS5 whole entry): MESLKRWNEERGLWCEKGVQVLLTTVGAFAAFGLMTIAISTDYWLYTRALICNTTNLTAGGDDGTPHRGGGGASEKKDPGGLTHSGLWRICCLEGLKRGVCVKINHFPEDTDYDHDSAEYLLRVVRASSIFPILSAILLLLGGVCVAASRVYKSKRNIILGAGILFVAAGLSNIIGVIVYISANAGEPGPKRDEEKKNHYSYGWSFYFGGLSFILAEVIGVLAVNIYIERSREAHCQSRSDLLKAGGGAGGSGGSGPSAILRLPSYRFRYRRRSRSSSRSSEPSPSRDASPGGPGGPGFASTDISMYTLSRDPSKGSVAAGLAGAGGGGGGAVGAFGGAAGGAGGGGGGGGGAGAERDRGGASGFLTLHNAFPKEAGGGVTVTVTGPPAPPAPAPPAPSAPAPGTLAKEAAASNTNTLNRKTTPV
T1 sequence (P42261 19-906 isoform P42261-2 limits assumed): as the sequence (P42261 19-906) above, with N740G, N750S, L754V, N760S, G772K, G773D, G774S, D775G counted along it
T3 sequence (P42261 19-906): as the sequence (P42261 19-906) above
T3 sequence (Q9Y698 whole entry): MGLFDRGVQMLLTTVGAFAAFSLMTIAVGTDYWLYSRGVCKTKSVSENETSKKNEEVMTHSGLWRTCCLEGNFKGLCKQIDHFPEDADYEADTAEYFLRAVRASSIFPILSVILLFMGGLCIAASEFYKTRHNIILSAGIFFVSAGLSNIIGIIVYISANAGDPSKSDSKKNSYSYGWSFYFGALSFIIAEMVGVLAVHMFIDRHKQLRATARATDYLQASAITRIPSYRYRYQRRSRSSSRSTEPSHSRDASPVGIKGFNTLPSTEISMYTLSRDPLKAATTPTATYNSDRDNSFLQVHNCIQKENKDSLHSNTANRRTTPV

Regarding `C[C@@H](c1ccc2[nH]c(=O)sc2c1)c1ccn(-c2ccc(OCCO)cn2)n1` (single isomer, unassigned) [Example 2], the “motor impairment as measured by the inverted screen test” value in the data set on motor impairment is listed as “without any observed motor impairment”. The IC50 (in general, the concentration needed to halve the response being measured) in data set [1] was over 9.26 µM; in data set [2], 74.5 ± 17.8 nM; in data set [3], over 9.26 µM. Moreover, the “inhibition of glutamate plus CTZ activation” value in data set [2] is given as “about 85.6±0.7%”. Also, the ED50 (commonly the midpoint of the dose-response relation) in the data set with PTZ induced seizures (Rattus norvegicus, male Sprague Dawley rats, p.o., dose range 1-10 mg/Kg, PTZ 35 mg/kg S.C., read-out: estimated ED50, protection against PTZ induced seizures) is 1.74 mg/kg; with formalin induced pain (Mus musculus, po, male CD1 mice, p.o., derived from dose responses at 3, 10, 30 mg/kg, read-out: ED50, reduction of pain behavior) it was 2.61 mg/kg. Moreover, the “protection against PTZ induced seizures” value with PTZ induced seizures (rats, 10 mg/Kg p.o.) is reported as 100%. In addition, the “% reduction in total time licking” value with formalin induced pain (3 mg/kg p.o.) is on record as 53.9%; in the data set with formalin induced pain (10 mg/kg p.o.), 80.4%; in the data set on formalin induced pain (30 mg/kg p.o.) it was 90.0%.

Values taken from patent US8765960B2, “6-((S)-1- {1-[5-(2-hydroxy-ethoxy)-pyridin-2-yl]-1H-pyrazol-3-YL}-ethyl)-3H-1,3-benzothiazol-2-one as a tarp-gamma 8 dependent AMPA receptor antagonist” (Eli Lilly and Company, priority 2012, dated 2014).
